US4007165A (priority 1974, dated 1977)

Columns and labels:
[1] = Solubility; format: physicochemical; settings: petroleum and other organic solvents
[2] = Thermal decomposition half-life; format: physicochemical
Experimental: (§1) It produces 179 cc. of gas per gram at 110° C. The following half-life data have been determined:
The following half-life data have been determined by gas evolution technique using trichlorobenzene as the solvent: […]

[3] = Preliminary toxicological studies / toxicity
[4] = Curing of unsaturated polyester-styrene resin
Experimental: An unsaturated polyester resin was made by reacting maleic anhydride (1.0 mole), phthalic anhydride (1.0 mole), and propylene glycol (2.2 moles) until an acid number of 45-50 was obtained. To this was added hydroquinone at a 0.013% concentration. Seven parts of this unsaturated polyester was diluted with 3 parts of monomeric styrene to obtain a homogeneous blend having a viscosity of 13.08 poise and a specific gravity of 1.14.
To 20 grams of this blend was added 0.128 gram of alpha-(tert.-butylazo)isobutyronitrile and the resultant composition placed in a constant temperature bath at 212° F. (100° C.). […] At 180° F. (82.2° C.), a peak exotherm of 381° F. (193.9° C.) was obtained in 13.3 minutes. The resultant cured materials were very hard.
The procedure of Example III was used at 212° F. (100° C.) and 240° F. (115.6° C.) where peak exotherms of 414° F. (212.2° C.) and 440° F. (226.7° C.) were obtained after 10.0 and 5.3 minutes respectively using 0.2 gram of the 1-tert.-butylazo-1-cyanocyclohexane. The resultant cured resins were very hard.
The curing procedure and resin are described in Example III.

[5] = High pressure polymerization of ethylene
[6] = Gas volume generated on thermal decomposition; format: physicochemical; settings: 130° C.
Experimental: as §1
It produces 146 cc. of gas per gram at 130° C.

[7] = 180° F. (82.2° C.), 0.128 gram in 20 grams blend
[8] = bath 212° F. (100° C.), 0.128 gram in 20 grams blend

Row | SMILES | solubility [1] | t 1/2 ([2]; 70° C.) [h] | toxicity relative to IXA and its decomposition residue [3] | hardness of cured resin [4] | peak exotherm [4, 7] [° F.] | time to peak exotherm [4, 7] [min] | quality of cure ([4]; 212° F. (100° C.)) | peak exotherm [4, 8] [° F.] | time to peak exotherm [4, 8] [min] | initiator performance [5] | gas produced [6] | t 1/2 ([2]; 96.3° C.) [h] | t 1/2 ([2]; 100° C.) [h] | t 1/2 ([2]; 110° C.) [h] | t 1/2 ([2]; 120° C.) | peak exotherm ([4]; 212° F. (100° C.), 0.2 gram) [° F.] | time to peak exotherm ([4]; 212° F. (100° C.), 0.2 gram) [min] | peak exotherm ([4]; 240° F. (115.6° C.), 0.2 gram) [° F.] | time to peak exotherm ([4]; 240° F. (115.6° C.), 0.2 gram) [min]
1 | CC(C)(C)N=NC(C)(C)C#N [Example I, Alpha-(tert.-butylazo)isobutyronitrile] | soluble in petroleum solvents | 40.5 | significantly less toxic | very hard | 381 | 13.3 | excellent cure | 424 | 4.9 | especially advantageous initiators |  |  |  |  |  |  |  |  | 
2 | CC(C)(C)N=NC1(C#N)CCCCC1 [Example IV, 1-tert.-butylazo-1-cyanocyclohexane] |  |  | significantly less toxic | very hard |  |  |  |  |  | especially advantageous initiators | 146 cc. of gas per gram | 10.0 | 6.7 | 2.3 | .75 h | 414 | 10.0 | 440 | 5.3
